{
  "source": "patent US6281194A",
  "about": "“Cycloalkyl inhibitors of protein farnesyltransferase” (Warner-Lambert Company, priority 1999, dated 2001)",
  "origin": "cited, not measured here",
  "key": {"[1]": {"system": "EJ-1 human bladder carcinoma, HT1080 human fibrosarcoma and human colon carcinoma xenografts", "conditions": "100 mg/kg, nude mice; cited from earlier work"}, "[2]": {"system": "human lung carcinoma with K-ras mutation and p53 deletion", "conditions": "nude mice; cited from earlier work"}, "[3]": {"system": "mammary and salivary carcinomas", "conditions": "daily administration; cited from earlier work"}},
  "data": [
    {"compound": "COC(=O)[C@H](CCSC)NC(=O)[C@H](/C=C\\[C@@H](/C=C/[C@@H](N)CS)C(C)C)Cc1ccccc1", "note": "[Example B1086]", "values": [
      {"measurement": "tumor growth (in words)", "setting": "[1]", "result": "inhibit tumor growth"}
    ]},
    {"compound": "CSCC[C@H](NC(=O)c1ccc(NC[C@@H](N)CS)cc1-c1ccccc1)C(=O)O", "note": "[FTI276]", "values": [
      {"measurement": "tumor growth (in words)", "setting": "[2]", "result": "selectively block tumor growth"}
    ]},
    {"compound": "CC[C@H](C)[C@@H](CO[C@@H](Cc1ccccc1)C(=O)N[C@@H](CCS(C)(=O)=O)C(=O)OC(C)C)NC[C@@H](N)CS", "note": "[L-744,832]", "values": [
      {"measurement": "tumor regression (in words)", "setting": "[3]", "result": "caused tumor regression"}
    ]}
  ]
}
